Like-named read-outs stand apart in the source and are kept apart here. Some results are limits rather than exact numbers.

Test [1] has as its target T1, Mcl-1 (Homo sapiens, UniProt Q07820). The note with it: cited from earlier work.
Target sequence in this assay (Q07820 whole entry): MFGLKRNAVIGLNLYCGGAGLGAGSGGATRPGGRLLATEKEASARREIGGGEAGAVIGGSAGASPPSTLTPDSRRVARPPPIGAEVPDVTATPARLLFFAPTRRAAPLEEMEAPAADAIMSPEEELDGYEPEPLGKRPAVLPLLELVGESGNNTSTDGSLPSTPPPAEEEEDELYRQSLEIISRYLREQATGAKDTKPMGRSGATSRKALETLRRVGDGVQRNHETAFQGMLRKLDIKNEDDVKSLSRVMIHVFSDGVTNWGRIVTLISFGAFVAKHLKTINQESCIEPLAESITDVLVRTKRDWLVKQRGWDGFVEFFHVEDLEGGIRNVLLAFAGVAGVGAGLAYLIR
The target in the next test is T2, A1/Bfl-1 (Homo sapiens, UniProt Q16548).
T2 sequence (Q16548 1-151): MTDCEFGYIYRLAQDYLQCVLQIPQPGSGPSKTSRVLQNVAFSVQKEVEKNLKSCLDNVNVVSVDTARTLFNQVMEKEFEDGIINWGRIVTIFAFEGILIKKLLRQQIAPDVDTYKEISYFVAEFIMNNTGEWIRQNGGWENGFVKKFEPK
Nature of the test: FP-based binding assay, A1/Bfl-1. The note with it: read-out: A1/Bfl-1 Ki ± SD.

The next test addresses T3, Bcl-w (Homo sapiens, UniProt Q92843).
T3 sequence (Q92843 1-155): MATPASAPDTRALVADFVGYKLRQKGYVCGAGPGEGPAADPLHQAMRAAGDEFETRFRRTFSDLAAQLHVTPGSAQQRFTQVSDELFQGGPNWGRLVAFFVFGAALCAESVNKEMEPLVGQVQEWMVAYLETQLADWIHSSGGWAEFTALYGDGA
Nature of the test: FP-based binding assay, Bcl-w. The note with it: competitive FP, FAM-BID 2 nM, protein 40 nM; read-out: Bcl-w Ki ± SD.

Test [2] addresses T4, cellular Mcl-1 protein (2LMP cell lysate) (Homo sapiens, UniProt Q07820).
T4 construct: endogenous in cells; host or cells: 2LMP (subclone of MDA-MB-231) cell lysate
Put plainly: Biotin-streptavidin pull-down with biotin-labeled Noxa BH3 peptide. The test is classed as binding. As to the method:
Human breast cancer 2LMP cells, a subclone of the MDA-MB-231 cell line, were lysed in CHAPS buffer (10 mM HEPES (pH 7.4), 2.5 mM EDTA, 150 mM NaCl, 1.0% CHAP). Pre-cleared cell lysates were incubated with different concentrations of tested compounds, followed by incubation with biotinylated Noxa BH3 peptide (residues 18-43) and streptavidin-agarose beads to pull-down Mcl-1 protein bound to Noxa peptide. Beads were washed with CHAPS buffer, and Mcl-1 protein was eluted by boiling in SDS-PAGE sample buffer and analyzed by Western blotting using Mcl-1 antibody (Santa Cruz). DMSO alone was used as a control for nonspecific pull-down.

Test [3] concerns the target T1, Mcl-1. Put plainly: FP-based binding assay, Mcl-1. The note with it: for IC50: Flu-BID 2 nM, Mcl-1 90 nM, read-out: Mcl-1 IC50 ± SD; for Ki: read-out: Mcl-1 Ki ± SD.
Target sequence in this assay (Q07820 171-327): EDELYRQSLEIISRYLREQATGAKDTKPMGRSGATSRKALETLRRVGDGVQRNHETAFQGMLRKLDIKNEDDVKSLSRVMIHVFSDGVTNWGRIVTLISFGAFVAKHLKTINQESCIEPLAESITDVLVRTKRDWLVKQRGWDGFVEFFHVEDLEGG
For the next test, the target named is Bcl-xL (Homo sapiens, UniProt Q07817, DEL45-85). Put plainly: FP-based binding assay, Bcl-xL. The note with it: read-out: Bcl-xL Ki ± SD.
A further test has as its target T5, Bcl-2 (Homo sapiens, UniProt P10415).
T5 construct: His-tagged proteins containing; fused on or other part: A 16-residue segment of the flexible loop of Bcl-xL (BCL2L1, Q07817; given as residues 35 to 50) set into the Bcl-2 loop region; His tag with TEV site from the pHis-TEV vector
Nature of the test: FP-based binding assay, Bcl-2. The note with it: competitive FP, Flu-BID 2 nM, protein 60 nM; read-out: Bcl-2 Ki ± SD.

Where [4] appears, read: competitive FP, FAM-BID 1 nM, protein 4 nM.
Where [5] appears, read: competitive FP, Ki calculated from IC50.
The mark [6] stands for this setting: competitive FP, FAM-BID 2 nM, protein 50 nM.

Chain of Bcl-xL (Q07817 other isoform, or with tags, fused parts or gaps DEL45-85): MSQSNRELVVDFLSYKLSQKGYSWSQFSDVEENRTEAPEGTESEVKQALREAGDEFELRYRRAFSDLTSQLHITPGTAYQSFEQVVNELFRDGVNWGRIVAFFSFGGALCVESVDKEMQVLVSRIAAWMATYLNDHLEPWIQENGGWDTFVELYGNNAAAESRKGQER
T5 sequence (P10415 with tags, fused parts or gaps with the stated changes): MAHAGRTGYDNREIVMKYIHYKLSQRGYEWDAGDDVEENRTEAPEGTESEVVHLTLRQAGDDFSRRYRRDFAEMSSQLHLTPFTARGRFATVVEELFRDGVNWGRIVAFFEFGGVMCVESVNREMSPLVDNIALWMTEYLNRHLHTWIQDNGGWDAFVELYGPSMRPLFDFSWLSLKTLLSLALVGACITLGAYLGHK
T4 sequence (Q07820 whole entry): as the sequence (Q07820 whole entry) above

As to `CN(C)CC[C@H](CSc1ccccc1)Nc1ccc(S(=O)(=O)NC(=O)c2ccc(N3CCN(Cc4ccccc4-c4ccc(Cl)cc4)CC3)cc2)cc1[N+](=O)[O-]` [ABT-737], the “binding to Mcl-1, result in words” value at Mcl-1 [1] is reported as “fails to bind to Mcl-1”.
For the compound `O=C(O)CSc1cc(NS(=O)(=O)c2cccs2)c2ccccc2c1O` [Compound 1, 2-((1-Hydroxy-4-(thiophene-2-sulfonamido)naphthalen-2-yl)thio)acetic acid], the Ki stood at 6.14 ± 1 µM on A1/Bfl-1 (setting [4]) and 37.5 ± 7.96 µM at Bcl-w. In test [2], the “disruption of BL-Noxa/cellular Mcl-1 interaction, result in words” value was “effectively disrupted”.
For the compound `O=C(O)CSc1cc(NS(=O)(=O)c2ccccc2-c2ccccc2)c2ccccc2c1O` [Compound 16, 2-((4-([1,1′-Biphenyl]-2-ylsulfonamido)-1-hydroxynaphthalen-2-yl)thio)acetic acid], the “fold improved binding to Mcl-1 compared to 2” value at Mcl-1 [3] is recorded as 2 fold. Further, the IC50 on Mcl-1 [3] (competitive FP) is 7.47 ± 1.47 µM. Further, the Ki on Mcl-1 [3] came to 2.03 ± 0.41 µM; on A1/Bfl-1 it was 17.3 ± 0.56 µM; at Bcl-w, 4.41 ± 0.39 µM; at Bcl-xL, 48.1 ± 3.28 µM.
In the case of `O=C(O)CSc1cc(NS(=O)(=O)c2ccc(Br)cc2)ccc1O` [Compound 22, 2-((5-(4-Bromophenylsulfonamido)-2-hydroxyphenyl)thio)acetic acid], the IC50 at Mcl-1 [3] (competitive FP) was more than 800 µM. Moreover, the Ki at Mcl-1 [3] (setting [5]) was more than 200 µM; on A1/Bfl-1 (setting [4]) it was more than 140 µM; at Bcl-2, more than 200 µM; on Bcl-w it was more than 90 µM; on Bcl-xL (setting [6]) it was more than 130 µM.
In the case of `COC(=O)CSc1cc(NS(=O)(=O)c2ccc(Br)cc2)c2ccccc2c1O` [Compound 29, Methyl 2-((4-(4-bromophenylsulfonamido)-1-hydroxynaphthalen-2-yl)thio)acetate], the IC50 on Mcl-1 [3] (competitive FP) was determined as 18.6 ± 4.93 µM. The Ki on Mcl-1 [3] (setting [5]) is 5.08 ± 1.35 µM; on A1/Bfl-1 (setting [4]), more than 140 µM; on Bcl-2, 23.8 ± 5.08 µM; on Bcl-w, more than 90 µM; on Bcl-xL (setting [6]), more than 130 µM.

(Values after US9486422B2, “Small molecule inhibitors of Mcl-1 and the uses of thereof” (THE REGENTS OF THE UNIVERSITY OF MICHIGAN, priority 2011, dated 2016).)
